Laboratory results: patent publication US20110059953A1, “COMPOUNDS FOR USE IN STABILIZING P53 MUTANTS” (priority 2008, published 2011)

The compounds below were run against T1, T-p53C-Y220C (Homo sapiens, UniProt P04637, M133L/N239Y/N268D/V203A/Y220C) (assay: Thermal denaturation using fluorescence (Sypro Orange)). Settings: further compounds; 10 μM protein.
T1 construct: For all other experiments, the DNA coding for residues 94-312 of T-p53C was inserted into a modified pET24a(+) vector; 6xHis tag + B. stearothermophilus dihydrolipoyl acetyltransferase lipoyl domain (aa 1-85) + TEV site (N, cleaved yes); made in house; host or cells: Escherichia coli BL21 (DE3) or C41 (DE3)
Type: binding
Method: This was by an adaption of the classical procedure (e.g. ref A6). Thermal unfolding was monitored by the binding of the dye Sypro Orange (5×) using a Rotor-gene 6000 (Corbett Life Science) at 270 K/h in 25 mM NaPi, 150 mM NaCl and 5 mM DTT, pH 7.2 with a protein concentration of 10 μM.
(§1) Where listed, S.E. is the calculated standard error.
as §1

SMILES | ΔTm (° C.)
CCn1c2ccccc2c2cc(CN3CCCN(C)CC3)ccc21 [PK175] | 0.395 °C
CCOC(=O)c1c(C)n(C)c2ccc(O)cc12 [PK241] | 0.2 °C
CCn1cc(C=C(C#N)C(N)=O)c2ccccc21 [PK240] | 0.2 °C
[2H]C(=O)OCC(=O)NC(=O)NC1CCCC1 [PK269] | 0.15 °C
CCn1c2ccccc2c2cc(CN3CCN(Cc4cc(OC)ccc4O)CC3)ccc21 [PK202] | 0.17 °C
[2H]C(=O)Nc1ccc(OC)c(S(N)(=O)=O)c1 [PK292] | 0.154 °C
[2H]C(=O)OC(C)c1nc(N)nc(N(C)C)n1 (centres unmarked) [PK286] | 0.24 °C
CCn1cc(C(=O)O)c2ccccc21 [PK242] | 0.16 °C
CCn1cc(C=C(C#N)C#N)c2ccccc21 [PK238] | 0.2 °C
CCn1c2ccccc2c2cc(CN3CCN(C)CC3)ccc21 [PK177] | 0.2 °C
CCn1cc(C(=O)OC)c2ccccc21 [PK339] | 0.4 °C
CCn1cc(C(=O)NCc2cccc(NC(=O)c3ccco3)c2)c2ccccc21 [PK314] | 0.16 °C
CCn1cc(C(=O)NCc2cccc(NC(=O)C3CC3)c2)c2ccccc21 [PK307] | 0.26 °C
[2H]C(=O)OC(C)C(=O)NC(N)=O (centres unmarked) [PK263] | 0.06 °C
[2H]C(=O)N1CCN(c2ncccn2)CC1 [PK283] | 0.19 °C
COc1ccc2c(c1)c(C(=O)NCCc1ccccn1)c(C)n2C1CC1 [PK276] | 0.29 °C
CCn1cc(C(=O)OCCOc2ccccc2C(C)=O)c2ccccc21 [PK309] | 0.29 °C
CCn1cc(C(=O)OCC2CNC(=O)O2)c2ccccc21 (centres unmarked) [PK311] | 0.15 °C
[2H]C(=O)OCC(=O)NC(=O)NC [PK268] | 0.31 °C
[2H]C(=O)Nc1cc(S(=O)(=O)N2CCN(C)CC2)ccc1OC [PK280] | 0.42 °C

SMILES | ΔTm (° C.)
[2H]NNS(=O)(=O)c1ccc(C(=O)OC)cc1 [PK281] | 0.43 °C
CCn1cc(C(=O)OC(C)C(=O)Nc2cc(C)on2)c2ccccc21 (centres unmarked) [PK270] | 0.11 °C
CCOC(=O)c1c(C)n(CC)c2ccc(OC(=O)Nc3ccc(Cl)cc3)cc12 [PK246] | 0.31 °C
CCn1cc(C(=O)Nc2ccc(OC)cc2)c2ccccc21 [PK237] | 0.2 °C
CCn1cc(C(=O)Nc2ccn(C)n2)c2ccccc21 [PK318] | 0.12 °C
CCOC(=O)c1c(C)n(CC)c2cc(Br)c(OC)cc12 [PK248] | 0.21 °C
CCn1c2ccccc2c2cc(CN(C)CC(O)c3ccccc3)ccc21 (centres unmarked) [PK186] | 0.18 °C
CCn1cc(C(=O)Nc2c(C)nn(C)c2C)c2ccccc21 [PK313] | 0.28 °C
CCOC(=O)c1c(C)n(C2CC2)c2ccc(OC(=O)C3COc4ccccc4O3)cc12 (centres unmarked) [PK305] | 0.26 °C
CCCn1cc(CCN)c2cc(OCC)ccc21 [PK408] | 0.26 °C
COc1ccc2c(c1)c(C(=O)OC(C(N)=O)c1ccccc1)c(C)n2C1CC1 (centres unmarked) [PK294] | 0.064 °C
CCn1c2ccccc2c2cc(CN3CCOCC3)ccc21 [PK190] | 0.15 °C
[2H]NNS(=O)(=O)c1cccc(C(F)(F)F)c1 [PK255] | 0.26 °C
[2H]C(=O)OCC(=O)Nc1cc(C)on1 [PK264] | 0.19 °C
[2H]C(=O)N1CCN(Cc2ccccc2)CC1 [PK285] | 0.2 °C
CCn1cc(C(=O)OCC(=O)c2ccc[nH]2)c2ccccc21 [PK279] | 0.24 °C
[2H]C(=O)OCC(=O)NC(=O)NCC [PK266] | 0.18 °C
CCn1cc(C(=O)OCC(=O)NC(=O)NCc2ccco2)c2ccccc21 [PK273] | 0.28 °C
Cn1cc(NN)c2ccccc21 [PK253] | 0.093 °C
CCOC(=O)c1c(C)n(C)c2ccc(OCCN(C)C)cc12 [PK250] | 0.14 °C

SMILES | ΔTm (° C.)
CCn1cc(C(=O)OCc2nc(N)nc(Nc3ccccc3)n2)c2ccccc21 [PK301] | 0.3 °C
[2H]C(=O)Nc1ccc(N2CCN(C)CC2)cc1C [PK295] | 0.244 °C
COc1ccc2c(c1)c(C(=O)OCC(=O)Nc1cc(F)ccc1F)c(C)n2C1CC1 [PK310] | 0.36 °C
CCn1c(-c2cn(CC)c3ccccc23)n[nH]c1=S [PK236] | 0.3 °C
[2H]C(=O)OCC(=O)NC(=O)NCC=C [PK256] | 0.1 °C
COc1ccc2c(c1)c(C(=O)NC(C)C(C)C)c(C)n2C1CC1 (centres unmarked) [PK277] | 0.34 °C
CCn1cc(C(=O)NCc2cccc(NC(=O)C3CC3)c2)c2ccccc21 [PK312] | 0.15 °C
[2H]C(=O)N1CCc2[nH]c3ccccc3c2C1 [PK293] | 0.3741 °C
[2H]C(=O)N(C)Cc1nc2ccccc2c(=O)[nH]1 [PK315] | 0.29 °C
CCn1c(C)c(C(=O)NCCN(C)C)c2cc(OC)ccc21 [PK402] | 0.19 °C
Cc1c(C=O)c2ccccc2n1C [PK243] | 0.2 °C
CCn1c2ccccc2c2cc(CN3CCc4ccccc4C3)ccc21 [PK176] | 0.455 °C
[2H]C(=O)OC(CC)C(=O)Nc1cc(C)on1 (centres unmarked) [PK284] | 0.23 °C
[2H]C(=O)OCC(=O)NCC(F)(F)F [PK258] | 0.1 °C
CCOc1ccc2c(c1)c(CCN)cn2CC [PK407] | 0.29 °C
CCn1cc(C(=O)NC(c2cccc(F)c2)c2nccn2C)c2ccccc21 (centres unmarked) [PK317] | 0.09 °C
[2H]NNS(=O)(=O)c1ccc(OC(F)(F)F)cc1 [PK254] | 0.43 °C
CCn1cc(C(=O)Nc2cccc(S(=O)(=O)N(C)C)c2)c2ccccc21 [PK272] | 0.44 °C
CCn1c2ccccc2c2cc(CN3CCN(Cc4ccccc4C(F)(F)F)CC3)ccc21 [PK197] | 0.08 °C

Results, then the compound that gave them:

ΔTm (° C.) | SMILES
0.387 °C | CCn1cc(C(=O)CN2CCc3ccccc3C2)c2ccccc21 [PK212]
0.23 °C | CCCN1CCN(CC(=O)Nc2ccc3c(c2)c2ccccc2n3CC)CC1 [PK126]
0.365 °C | CCn1c2ccccc2c2cc(NC(=O)CN3C(=O)NC4(CCCC4)C3=O)ccc21 [PK116]
0.335 °C | CCn1c2ccccc2c2cc(NC(=O)COC(=O)CNC(=O)c3ccc([N+](=O)[O-])cc3)ccc21 [PK108]
0.28 °C | CNCc1ccc2c(c1)c1ccccc1n2CCS [PK234]
0.66 °C | CCn1c2ccccc2c2cc(CNCC(C)O)ccc21 (centres unmarked) [PK391]
0.35 °C | CCn1c2ccccc2c2cc(CNCCN3CCOCC3)ccc21 [PK208]
0.14 °C | CCn1cc(C2CC3CN(C)C(=O)C34CCCN24)c2ccccc21 (centres unmarked) [PK222]
0.16 °C | CCn1c2ccccc2c2cc(NC(=O)C3=COCCO3)ccc21 [PK153]
0.28 °C | CCn1c2ccccc2c2cc(NC(=O)CN(C)CC(=O)Nc3ccc(N4CCOCC4)cc3)ccc21 [PK122]
0.14 °C | CCn1c2ccccc2c2cc(NC(=O)CN3CCC(C(N)=O)CC3)ccc21 [PK151]
0.24 °C | CCn1c2ccccc2c2cc(NC(=O)CN3C(=O)NC4(CCCCC4)C3=O)ccc21 [PK165]
0.7 °C | CNCc1ccc2c(c1)c1ccccc1n2CCCl [PK229]
0.2 °C | CCn1c2ccccc2c2cc(NC(=O)CO)ccc21 [PK132]
0.195 °C | CCn1c2ccccc2c2cc(NC(=O)COc3ccc(S(=O)(=O)N4CCOCC4)cc3)ccc21 [PK094]
0.12 °C | CCn1c2ccccc2c2cc(CN(C)c3ccc4nnnn4n3)ccc21 [PK157]
0.24 °C | CCn1c2ccccc2c2cc(NC(=O)CN3CCOCC3)ccc21 [PK128]
0.39 °C | CNCc1ccc2c(c1)c1ccccc1n2CCBr [PK232]
0.41 °C | CCn1c2ccccc2c2cc(CNCCSc3nnnn3C)ccc21 [PK390]
0.36 °C | CCOC(=O)/C=C/C(=O)OCC(=O)Nc1ccc2c(c1)c1ccccc1n2CC [PK113]
0.17 °C | CCn1c2ccccc2c2cc(CN3CCN(S(=O)(=O)c4ccccc4)CC3)ccc21 [PK215]
0.31 °C | CCn1c2ccccc2c2cc(CN3CCCC(C4NC(=O)NC4C)C3)ccc21 (centres unmarked) [PK218]
0.083 °C | CCn1c2ccccc2c2cc(NC(=O)CCCC(=O)O)ccc21 [PK135]
0.70 °C | CCn1c2ccccc2c2cc(CNCCNCCO)ccc21 [PK392]
0.4 °C | CCn1c2ccccc2c2cc(CNCC(F)(F)F)ccc21 [PK230]
0.28 °C | CCn1c2ccccc2c2cc(NC(=O)COC(=O)Cn3nc(C)c([N+](=O)[O-])c3C)ccc21 [PK118]
0.27 °C | CCn1c2ccccc2c2cc(NC(=O)COc3ccc([N+](=O)[O-])nc3)ccc21 [PK163]
0.145 °C | CCn1c2ccccc2c2cc(NC(=O)C(C)OC(=O)c3n[nH]c(=O)c4ccccc34)ccc21 (centres unmarked) [PK133]
0.26 °C | CCn1cc(C(=O)NCc2cccc(S(=O)(=O)N3CCOCC3)c2)c2ccccc21 [PK306]

Same assay, conditions: further studies on compounds described above; 10 μM protein

ΔTm (° C.) | SMILES
0.24 °C | CCn1c2ccccc2c2cc(NC(=O)COc3ccc([N+](=O)[O-])nc3)ccc21 [PK163]
